# From patent US11389544B2, “Formation of functionalized cancer targeting nanoparticles by supramolecular co-assembly” (RAMOT AT TEL-AVIV UNIVERSITY LTD., priority 2016, dated 2022)
# Tested on: human pancreatic cancer cells (Panc-1)
# Test: Live cell imaging by confocal microscopy, binding/uptake to Panc-1 cells
# Type: cell-based
# Conditions: Panc-1, 2 h incubation, carboxyfluorescein loaded
# Method: Carboxyfluorescein was encapsulated during the preparation of the nanoparticles. Following two hours of incubation with Panc-1 cancer cells, the cells were treated with concanavalin A (Con A) Alexa Fluor 647 conjugate. Live cell imaging analysis was performed by confocal microscopy (FIGS. 8 and 13). […] These findings support the proposed model for the co-assembly of the two peptides. As assumed, the co-assembly with Boc-FF which serves as a spacer, enabled the binding of PTR analog to the somatostatin receptor (FIG. 2b).
# Panc-1 and HEK-293T cells were cultured (100,000 cells) on a cell culture dish with a glass bottom (35 mm, Greiner Bio-one). In the following day cells were incubated for two hours at 37° C. under various conditions: carboxyfluorescein (15 μM), Boc-FF (0.12 mM) and carboxyfluorescein (15 μM), Fmoc-FF-PEG2-PTR (0.3 mM) encapsulated with carboxyfluorescein (15 μM), PTR-3207-86 (0.3 mM), Fmoc-FF-PEG2-PTR (0.3 mM):Boc-FF (1:4) nanospheres encapsulated with carboxyfluorescein (15 μM). After incubation, cells were washed with PBS buffer and were treated with 10 μg/ml Concanavalin A (Con A) Alexa Fluor 647 Conjugate (Invitrogen, Carlsbad, Calif.) for 15 minutes and washed again with PBS. Live cell imaging was conducted using LSM 510 Meta confocal laser scanning microscope (Carl Zeiss, Jena, Germany).
substance,measurement,value
carboxyfluorescein,fluorescence observed in cells (binding/uptake),No fluorescence was observed
